Consider 1 compound from patent US20140350029A1 (DAINIPPON SUMITOMO PHARMA CO., LTD., priority 2011, published 2014).

Series [1] concerns the target T1, Dopamine D1 receptor (Rattus norvegicus, UniProt P18901).
T1 construct: Membranes from male Wistar rat brain tissues; from tissue; host or cells: male Wistar rat brain
The series can be described thus: In vitro receptor binding, dopamine D1 (rat). The following applies: read-out: Binding Affinities (Ki; nM) Dopamine D1. On the procedure: In vitro binding studies were carried out according to the procedures well-established in the art. Membranes from male Wistar rat brain tissues or cells expressing cloned human receptors were prepared under assay conditions summarized in Ishibashi, T. et al. (Journal of Pharmacology and Experimental Therapeutics (2010)). Functional assays were carried out to analyze the binding affinity and effect on receptor function for dopamine D1-D4 receptor subtypes, serotonin 5-HT1A, 5-HT2A, 5-HT2C, 5-HT6, 5-HT7, norepinephrine α1, α2A, α2C, histamine H1 receptors, and muscarinic M1 receptors.

For series [2], the target named is T2, Norepinephrine α2C receptor (Homo sapiens, UniProt P18825).
T2 sequence (P18825 1-462): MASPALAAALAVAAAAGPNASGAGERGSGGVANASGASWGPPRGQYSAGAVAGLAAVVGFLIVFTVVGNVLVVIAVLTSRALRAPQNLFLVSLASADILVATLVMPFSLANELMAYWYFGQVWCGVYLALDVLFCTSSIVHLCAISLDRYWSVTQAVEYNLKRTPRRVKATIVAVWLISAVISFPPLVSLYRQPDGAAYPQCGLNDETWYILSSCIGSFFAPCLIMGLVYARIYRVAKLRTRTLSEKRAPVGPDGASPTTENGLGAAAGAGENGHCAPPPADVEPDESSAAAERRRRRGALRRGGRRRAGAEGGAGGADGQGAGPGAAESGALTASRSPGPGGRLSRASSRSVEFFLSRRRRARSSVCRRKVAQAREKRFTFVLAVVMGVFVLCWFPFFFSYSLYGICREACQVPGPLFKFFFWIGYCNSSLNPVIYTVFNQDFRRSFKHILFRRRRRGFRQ
Briefly: In vitro receptor binding, norepinephrine α2C.

In series [3] the test system is patients with bipolar I depression. Briefly: Lurasidone monotherapy for bipolar I depression, 6-week study, efficacy. The following applies: for MADRS effect size vs PBO / MADRS score reduction (change from baseline, MMRM) / reduction in CGI-BP-S depression scores (MMRM): week 6. Type of series: in vivo, human. The method, then:
Changes from DB baseline (DB-BL) to week 6 in MADRS and CGI-bipolar severity (CGI-BP-S) depression scores, respectively, were analyzed using mixed model for repeated measures (MMRM). Additional secondary outcome measures, e.g., Sheehan Disability Scale (SDS), were analyzed using analysis of covariance, last observation carried forward (ANCOVA-LOCF), or logistic regression.

The nature of series [4]: Short-term (6-week) and long-term (6-month, 12-month) metabolic safety study. Type of series: in vivo, human. On the procedure: The mean change in weight and BMI was assessed at the LOCF endpoint for the short-term study. […] FIG. 6 summarizes the mean change in weight and BMI in observed cases after 6 months and 12 months of treatment
The median change in total cholesterol and triglycerides, and glucose and HbA1c, was also assessed for both the short-term and long-term studies.

Series [5] deals with patients with schizophrenia. Briefly: Quality of Well-Being (QWB-SA), 6-week placebo-controlled study. Conditions: 80 mg and 160 mg lurasidone per day, 6 weeks. Type of series: in vivo, human. On the procedure:
Quality of Well-Being (QWB) was measured according to the procedures well-established in the art. The QWB was a self administered questionnaire (QWB-SA), where the combined score ranged from 0 to 1.0 (death to optimal functioning). A patient diagnosed with schizophrenia answered five sections assessing the presence/absence of 19 chronic symptoms or problems, physical symptoms, and mental health symptoms and behaviors as well as an assessment of a person's mobility, physical activity and social activity including completion of role expectations. […] In addition, the relationship between other indicators of therapy outcome, for example, cognitive composite scores, PANSS scores, Negative Symptom Assessment Scale scores (NSA), and Montgomery-Asberg Depression Rating Scale scores (MADRS), was evaluated in relation to quality of life, as assessed by the QWB-SA. […] In addition, partial correlations were found between improvement of QWB-SA and PANSS scores, QWB-SA and MADE scores, QWB-SA and NSA scores, and QWB-SA and cognitive composite scores.

Series [6] addresses T3, serotonin 5-HT1A receptor (Homo sapiens, UniProt P08908).
T3 sequence (P08908 1-422): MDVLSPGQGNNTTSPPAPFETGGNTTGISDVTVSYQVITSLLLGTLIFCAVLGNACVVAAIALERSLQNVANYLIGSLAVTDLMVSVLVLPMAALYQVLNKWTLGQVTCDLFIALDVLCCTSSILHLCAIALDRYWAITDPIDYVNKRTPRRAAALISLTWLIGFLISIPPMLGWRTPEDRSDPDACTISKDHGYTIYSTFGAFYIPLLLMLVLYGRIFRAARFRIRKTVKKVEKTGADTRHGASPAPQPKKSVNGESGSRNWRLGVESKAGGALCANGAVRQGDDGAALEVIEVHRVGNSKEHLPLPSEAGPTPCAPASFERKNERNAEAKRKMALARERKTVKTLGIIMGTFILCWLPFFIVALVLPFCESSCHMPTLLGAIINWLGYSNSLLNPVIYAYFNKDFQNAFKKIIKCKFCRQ
Conditions: background statement; cited from earlier work.

For series [7], the target named is T4, Dopamine D4 receptor (Homo sapiens, UniProt P21917).
T4 sequence (P21917 1-419): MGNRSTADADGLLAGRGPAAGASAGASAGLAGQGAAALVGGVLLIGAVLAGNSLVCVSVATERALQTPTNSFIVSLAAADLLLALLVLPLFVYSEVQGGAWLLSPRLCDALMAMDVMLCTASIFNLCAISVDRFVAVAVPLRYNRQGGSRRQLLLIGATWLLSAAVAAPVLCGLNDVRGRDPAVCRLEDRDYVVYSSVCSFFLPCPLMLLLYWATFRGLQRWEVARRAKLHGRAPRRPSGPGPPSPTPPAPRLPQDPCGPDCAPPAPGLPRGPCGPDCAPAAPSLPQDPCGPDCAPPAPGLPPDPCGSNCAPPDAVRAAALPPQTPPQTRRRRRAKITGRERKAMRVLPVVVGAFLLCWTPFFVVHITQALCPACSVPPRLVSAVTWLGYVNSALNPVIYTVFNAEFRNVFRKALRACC
Briefly: In vitro receptor binding, dopamine D4. Conditions: cloned cells expressing human receptors; read-out: Binding Affinities (Ki; nM) Dopamine D4.

The structures appear in SMILES notation. “Also recorded” adds a separate entry of the source.

T1 sequence (P18901 whole entry): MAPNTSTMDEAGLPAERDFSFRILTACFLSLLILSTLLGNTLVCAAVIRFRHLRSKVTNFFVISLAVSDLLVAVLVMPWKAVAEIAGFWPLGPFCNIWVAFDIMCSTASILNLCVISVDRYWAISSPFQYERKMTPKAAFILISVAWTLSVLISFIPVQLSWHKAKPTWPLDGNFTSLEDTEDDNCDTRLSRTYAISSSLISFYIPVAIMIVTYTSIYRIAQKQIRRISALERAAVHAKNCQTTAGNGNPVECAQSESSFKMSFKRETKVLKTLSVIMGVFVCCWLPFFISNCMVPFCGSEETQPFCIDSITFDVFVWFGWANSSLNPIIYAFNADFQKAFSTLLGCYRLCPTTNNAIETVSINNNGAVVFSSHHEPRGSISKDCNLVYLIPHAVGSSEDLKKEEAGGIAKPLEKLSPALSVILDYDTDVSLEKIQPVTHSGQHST

In the case of `O=C1[C@@H]2[C@H]3CC[C@H](C3)[C@@H]2C(=O)N1C[C@@H]1CCCC[C@H]1CN1CCN(c2nsc3ccccc23)CC1` [Lurasidone], the Ki (as a rule, a measure of affinity in units of concentration, obtained from inhibition or displacement) turned out to be 262 nM in series [1]; 10.8 nM in series [2] (cloned cells expressing human receptors, read-out: Binding Affinities (Ki; nM) Norepinephrine α2C); 29.7 nM in series [7]. For the same compound, in series [2] (summary of Table 2), the “affinity for α2C adrenoreceptor (in words)” value was “moderate affinity”. For the same compound, the “Sheehan Disability Scale (SDS) vs PBO” value in series [3] (both LUR20-60 and LUR80-120 groups, LOCF) is reported as “significant improvement over PBO”. The entries for the “Responder rates (reduction in MADRS total score ≧50%)” value in series [3] (lurasidone 20 to 60 mg/day) and in series [3] (lurasidone 80 to 120 mg/day) were 53% and 51%, respectively. The “MADRS effect size vs PBO” value in series [3] (lurasidone 20 to 60 mg/day) and in series [3] (lurasidone 80 to 120 mg/day) was 0.51 each time. Further, the “MADRS score reduction (change from baseline, MMRM)” value in series [3] (lurasidone 20 to 60 mg/day) and in series [3] (lurasidone 80 to 120 mg/day) was −15.4 in each case. The “reduction in CGI-BP-S depression scores (MMRM)” value in series [3] (lurasidone 20 to 60 mg/day) was −1.8; in series [3] (lurasidone 80 to 120 mg/day) it was −1.7. In addition, in series [3] (monotherapy, flexibly dosed at 20 to 60 mg/day or 80 to 120 mg/day), the “depressive symptoms compared to placebo” value is reported as “significantly reduced depressive symptoms”. Also, the “mean change in weight and BMI as compared to other treatments” value in series [4] (short-term (6-week) study, LOCF endpoint, patients with schizophrenia) is “minimal increases”. Besides, the “disturbances in lipids or glycemic control” value in series [4] (short-term and long-term (6 and 12 months) studies) is reported as “not associated with disturbances in lipids or glycemic control”. Besides, in series [5], the “QWB-SA score compared to placebo (endpoint ANCOVA)” value is reported as “significant improvement”. The “reported affinity for 5-HT1A receptor” value in series [6] is “high affinity; also recorded: moderate affinity”.
